Patent publication US10538555B2, “Macrocyclic inhibitors of the PD-1/PD-L1 and CD80(B7-1)/PD-L1 protein/protein interactions” (BRISTOL-MYERS SQUIBB COMPANY, priority 2014, dated 2020)
Where a SMILES comes first, the peptide text is derived from it. Bridges are numbered along the chain shown (N, C = ends). [ ]: non-standard residue; d: D form. ξ: configuration not given here. Phe(3,4,5-F3) = N[C@@H](Cc1cc(F)c(F)c(F)c1)C(=O)O; Morpholine(3S-CO) = O=C(O)[C@@H]1COCCN1; Pro(4R-NH2) = N[C@H]1CN[C@H](C(=O)O)C1; d(cisHyp) = O=C(O)[C@H]1C[C@@H](O)CN1; Hyp = O=C(O)[C@@H]1C[C@@H](O)CN1; NMeF = CN[C@@H](Cc1ccccc1)C(=O)O; NMehSer = CN[C@@H](CCO)C(=O)O; NMeNle = CCCC[C@H](NC)C(=O)O; Tle = CC(C)(C)[C@H](N)C(=O)O; dNle = CCCC[C@@H](N)C(=O)O; Pip = O=C(O)[C@@H]1CCCCN1; dPip = O=C(O)[C@H]1CCCCN1; NMeA = CN[C@@H](C)C(=O)O; Orn = NCCC[C@H](N)C(=O)O; Dab = NCC[C@H](N)C(=O)O; Dap = NC[C@H](N)C(=O)O; ξPip = O=C(O)C1CCCCN1; ξC = NC(CS)C(=O)O

Target: T1, Human PD-L1/PD-1 (Homo sapiens, UniProt Q9NZQ7)
T1 construct: TVMV protease cleavage site (C); made in house; host or cells: HEK293T cells
Experiment: HTRF Human PD-L1/PD-1 binding assay (PD-1-Ig/PD-L1-His)
Conditions: PD-L1-His 10 nM, PD-1-Ig 20 nM; class symbol; read-out: HTRF Human PD-L1/PD-1 Binding Assay IC50 Range
How it was run: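 Competition of macrocyclic peptides for PD-1/PD-L1 binding measured by HTRF in dPBS containing 0.1% BSA and 0.05% Tween-20. Compound and PD-L1-His (10 nM final) incubated 15 min before PD-1-Ig (20 nM final) and a further 15 min.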

T1 sequence (Q9NZQ7 with tags, fused parts or gaps): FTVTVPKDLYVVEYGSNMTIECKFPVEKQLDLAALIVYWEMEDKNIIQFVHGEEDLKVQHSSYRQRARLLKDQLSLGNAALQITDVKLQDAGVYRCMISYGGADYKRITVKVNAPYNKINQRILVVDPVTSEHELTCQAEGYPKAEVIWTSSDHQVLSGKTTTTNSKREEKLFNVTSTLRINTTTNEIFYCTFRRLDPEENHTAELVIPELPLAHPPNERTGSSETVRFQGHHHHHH

| SMILES | IC50 |
| --- | --- |
| CCCC[C@H]1C(=O)N[C@@H](CCC(=O)O)C(=O)N[C@H](C(=O)NCC(N)=O)CSCC(=O)N[C@@H](Cc2ccc(O)cc2)C(=O)N(C)[C@@H](C)C(=O)N[C@@H](CC(N)=O)C(=O)N2CCC[C@H]2C(=O)N[C@@H](Cc2c[nH]cn2)C(=O)N[C@@H](CCC(N)=O)C(=O)N2C[C@H](O)C[C@H]2C(=O)N[C@@H](Cc2c[nH]c3ccccc23)C(=O)N[C@@H](CO)C(=O)N[C@@H](Cc2c[nH]c3ccccc23)C(=O)N(C)[C@@H](CCOC)C(=O)N1C [Example 10141] ({CH2CO}-Y[NMeA]NPHQ[Hyp]WSW[NMehSer](Me)[NMeNle]ECG-NH2; thioether N-14) | 10 to 99.9 nM |
| CCCC[C@H]1NC(=O)[C@H](Cc2c[nH]c3ccccc23)NC(=O)[C@H](CO)NC(=O)[C@H](Cc2c[nH]c3ccccc23)NC(=O)[C@@H]2C[C@@H](O)CN2C(=O)[C@H](CC(C)C)NC(=O)[C@H](Cc2cnc[nH]2)NC(=O)[C@@H]2CCCN2C(=O)[C@H](CC(=O)O)NC(=O)[C@H](C)N(C)C(=O)[C@H](Cc2ccc(O)cc2)NC(=O)CSCC(C(=O)NCC(N)=O)NC(=O)[C@H](CCC(=O)O)NC(=O)[C@H](CCCC)N(C)C1=O (some centres unmarked) [Example 10132] ({CH2CO}-Y[NMeA]DPHL[Hyp]WSW[dNle][NMeNle]E[ξC]G-NH2; thioether N-14) | 100 to 990 nM |
| CCCC[C@H]1C(=O)N(C)[C@@H](CCCC)C(=O)N[C@@H](CCCNC(=N)N)C(=O)N[C@H](C(=O)NCC(N)=O)CSCC(=O)N[C@@H](Cc2ccc(O)cc2)C(=O)N(C)[C@@H](C)C(=O)N[C@@H](CC(N)=O)C(=O)N2CCC[C@H]2C(=O)N[C@@H](CCN)C(=O)N[C@@H](CC(C)C)C(=O)N2C[C@H](O)C[C@H]2C(=O)N[C@@H](Cc2c[nH]c3ccccc23)C(=O)N[C@@H](C(C)(C)C)C(=O)N[C@@H](Cc2c[nH]c3ccccc23)C(=O)N1C [Example 11001] ({CH2CO}-Y[NMeA]NP[Dab]L[Hyp]W[Tle]W[NMeNle][NMeNle]RCG-NH2; thioether N-14) | 10 to 99.9 nM |
| CCCC[C@H]1C(=O)N(C)[C@@H](CCCC)C(=O)N[C@@H](CCC(=O)O)C(=O)NC(C(=O)NCC(N)=O)CSCC(=O)N[C@@H](Cc2ccc(O)cc2)C(=O)N(C)[C@@H](C)C(=O)N[C@@H](CC(N)=O)C(=O)N2CCC[C@H]2C(=O)N[C@@H](Cc2c[nH]cn2)C(=O)N[C@@H](CC(N)=O)C(=O)N2CCC[C@H]2C(=O)N[C@@H](Cc2c[nH]c3ccccc23)C(=O)N[C@@H](CO)C(=O)N[C@@H](Cc2c[nH]c3ccccc23)C(=O)N1C (some centres unmarked) [Example 9170] ({CH2CO}-Y[NMeA]NPHNPWSW[NMeNle][NMeNle]E[ξC]G-NH2; thioether N-14) | 10 to 99.9 nM |
| CCCC[C@H]1C(=O)N(C)[C@@H](CCCC)C(=O)N[C@@H](C)C(=O)N[C@H](C(=O)NCC(N)=O)CSCC(=O)N[C@@H](Cc2ccc(O)cc2)C(=O)N(C)[C@@H](C)C(=O)N[C@@H](CC(N)=O)C(=O)N2CCOC[C@H]2C(=O)N[C@@H](Cc2cnc[nH]2)C(=O)N[C@@H](CCC(N)=O)C(=O)N2C[C@H](O)C[C@H]2C(=O)N[C@@H](Cc2c[nH]c3ccccc23)C(=O)N[C@@H](CO)C(=O)N[C@@H](Cc2c[nH]c3ccccc23)C(=O)N1C [Example 1280] ({CH2CO}-Y[NMeA]N[Morpholine(3S-CO)]HQ[Hyp]WSW[NMeNle][NMeNle]ACG-NH2; thioether N-14) | 10 to 99.9 nM |
| CCCC[C@H]1C(=O)N(C)[C@@H](CCCC)C(=O)N[C@@H](CCCNC(=N)N)C(=O)NC(C(=O)NCC(N)=O)CSCC(=O)N[C@@H](Cc2ccc(O)cc2)C(=O)N(C)[C@@H](C)C(=O)N[C@@H](Cc2cnc[nH]2)C(=O)N2CCC[C@H]2C(=O)N[C@@H](CC(N)=O)C(=O)N[C@@H](CC(C)C)C(=O)N2CCC[C@H]2C(=O)N[C@@H](Cc2c[nH]c3ccccc23)C(=O)N[C@@H](CO)C(=O)N[C@@H](Cc2c[nH]c3ccccc23)C(=O)N1C (some centres unmarked) [Example 9144] ({CH2CO}-Y[NMeA]HPNLPWSW[NMeNle][NMeNle]R[ξC]G-NH2; thioether N-14) | 1 to 9.9 nM |
| CCCC[C@H]1C(=O)N[C@@H](CN)C(=O)N[C@H](C(=O)NCC(N)=O)CSCC(=O)N[C@@H](Cc2ccc(O)cc2)C(=O)N(C)[C@@H](C)C(=O)N[C@@H](CC(=O)O)C(=O)N2CCC[C@H]2C(=O)N[C@@H](Cc2c[nH]cn2)C(=O)N[C@@H](CCC(N)=O)C(=O)N2C[C@H](O)C[C@H]2C(=O)N[C@@H](Cc2c[nH]c3ccccc23)C(=O)N[C@@H](CO)C(=O)N[C@@H](Cc2c[nH]c3ccccc23)C(=O)N(C)[C@@H](CCOC)C(=O)N1C [Example 10139] ({CH2CO}-Y[NMeA]DPHQ[Hyp]WSW[NMehSer](Me)[NMeNle][Dap]CG-NH2; thioether N-14) | 1 to 9.9 nM |
| CCCC[C@H]1C(=O)N(C)[C@@H](CCCC)C(=O)N[C@@H](CCCN)C(=O)N[C@H](C(=O)NCC(N)=O)CSCC(=O)N[C@@H](Cc2ccc(O)cc2)C(=O)N2CCCCC2C(=O)N[C@@H](CC(=O)O)C(=O)N2CCC[C@H]2C(=O)N[C@@H](CN)C(=O)N[C@@H](CCC(=O)O)C(=O)N2C[C@H](O)C[C@H]2C(=O)N[C@@H](Cc2c[nH]c3ccccc23)C(=O)N[C@@H](CCN)C(=O)N[C@@H](Cc2c[nH]c3ccccc23)C(=O)N1C (some centres unmarked) [Example 1528] ({CH2CO}-Y[ξPip]DP[Dap]E[Hyp]W[Dab]W[NMeNle][NMeNle][Orn]CG-NH2; thioether N-14) | 10 to 99.9 nM |

The next lines start with the values.

| IC50 | SMILES |
| --- | --- |
| 1 to 9.9 nM | CCCC[C@H]1C(=O)N(C)[C@@H](CCCC)C(=O)N[C@@H](CCC(=O)O)C(=O)N[C@H](C(=O)NCC(N)=O)CSCC(=O)N[C@@H](Cc2ccc(O)cc2)C(=O)N(C)[C@@H](C)C(=O)N[C@@H](CC(=O)O)C(=O)N2CCC[C@H]2C(=O)N[C@@H](CN)C(=O)N[C@@H](CCC(N)=O)C(=O)N2C[C@H](O)C[C@H]2C(=O)N[C@@H](Cc2c[nH]c3ccccc23)C(=O)N[C@@H](CCN)C(=O)N[C@@H](Cc2c[nH]c3ccccc23)C(=O)N1C [Example 5200] ({CH2CO}-Y[NMeA]DP[Dap]Q[Hyp]W[Dab]W[NMeNle][NMeNle]ECG-NH2; thioether N-14) |
| 1 to 9.9 nM | CCCC[C@H]1C(=O)N(C)[C@@H](CCCC)C(=O)N[C@@H](CC(C)C)C(=O)N[C@H](C(=O)NCC(N)=O)CSCC(=O)N[C@@H](Cc2ccc(O)cc2)C(=O)N2CCCC[C@H]2C(=O)N[C@@H](CC(=O)O)C(=O)N2CCC[C@H]2C(=O)N[C@@H](CN)C(=O)N[C@@H](CCC(=O)O)C(=O)N2C[C@H](O)C[C@H]2C(=O)N[C@@H](Cc2c[nH]c3ccccc23)C(=O)N[C@@H](CO)C(=O)N[C@@H](Cc2c[nH]c3ccccc23)C(=O)N1C [Example 1272] ({CH2CO}-Y[Pip]DP[Dap]E[Hyp]WSW[NMeNle][NMeNle]LCG-NH2; thioether N-14) |
| 1 to 9.9 nM | CCCC[C@H]1C(=O)N2C[C@H](O)C[C@@H]2C(=O)N2C[C@H](N)C[C@H]2C(=O)N[C@@H](C(C)C)C(=O)N(C)[C@@H](Cc2ccccc2)C(=O)N[C@@H](CCC(=O)O)C(=O)N2CCCC[C@@H]2C(=O)N[C@@H](Cc2c[nH]c3ccccc23)C(=O)N[C@@H](Cc2ccc(O)cc2)C(=O)N[C@@H](CC(C)C)C(=O)N[C@H](C(=O)NCC(N)=O)CSCC(=O)N[C@@H](Cc2cc(F)c(F)c(F)c2)C(=O)N(C)[C@@H](Cc2ccccc2)C(=O)N1C [Example 3227] ({CH2CO}-[Phe(3,4,5-F3)][NMeF][NMeNle][d(cisHyp)][Pro(4R-NH2)]V[NMeF]E[dPip]WYLCG-NH2; thioether N-13) |
